# In patent US6600035B1, “6-(substituted methylene) penems and intermediates” (SMithKline Beecham p.l.c., priority 1992, dated 2003):
# Columns and labels:
# BC II β-lactamase enzyme = BC II β-lactamase enzyme (Bacillus cereus, UniProt P04190); test: β-lactamase inhibitory activity: 50% inhibition of β-lactam hydrolysis, BC II; assay type: biochemical
# PC1 β-lactamase enzyme = PC1 β-lactamase enzyme (Staphylococcus aureus, UniProt P00807); test: biochemical
# OXA-1 β-lactamase enzyme = OXA-1 β-lactamase enzyme (Escherichia coli, UniProt P13661); test: biochemical
# Chain of OXA-1 β-lactamase enzyme (P13661 26-276): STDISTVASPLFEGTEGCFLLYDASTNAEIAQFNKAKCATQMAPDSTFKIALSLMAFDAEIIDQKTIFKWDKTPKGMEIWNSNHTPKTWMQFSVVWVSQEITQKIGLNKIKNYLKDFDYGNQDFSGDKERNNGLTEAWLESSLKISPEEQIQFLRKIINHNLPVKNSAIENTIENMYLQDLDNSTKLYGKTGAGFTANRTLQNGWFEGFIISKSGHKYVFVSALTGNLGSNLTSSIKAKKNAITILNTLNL
# P99 β-lactamase enzyme = P99 β-lactamase enzyme (Enterobacter cloacae, UniProt P05364); test: biochemical
# Chain of P99 β-lactamase enzyme (P05364 21-381): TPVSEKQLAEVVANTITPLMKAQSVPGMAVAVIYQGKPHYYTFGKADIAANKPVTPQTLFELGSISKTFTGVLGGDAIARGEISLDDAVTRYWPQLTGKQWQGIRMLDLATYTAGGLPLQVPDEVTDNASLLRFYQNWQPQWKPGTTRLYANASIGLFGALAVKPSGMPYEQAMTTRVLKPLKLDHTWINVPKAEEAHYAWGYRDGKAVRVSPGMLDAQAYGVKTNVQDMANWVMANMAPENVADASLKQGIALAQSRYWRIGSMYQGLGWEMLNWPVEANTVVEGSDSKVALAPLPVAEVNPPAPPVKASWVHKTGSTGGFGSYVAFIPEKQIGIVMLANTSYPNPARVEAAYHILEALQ
# [1] = target: P. mirabilis β-lactamase enzyme; test: β-lactamase inhibitory activity: 50% inhibition of β-lactam hydrolysis, P. mirabilis; assay type: biochemical; conditions: read-out: I50 (concentration required to achieve 50% inhibition of β-lactam hydrolysis)
# TEM-1 β-lactamase enzyme = TEM-1 β-lactamase enzyme (Escherichia coli, UniProt P62593); test: β-lactamase inhibitory activity: 50% inhibition of β-lactam hydrolysis, TEM-1; assay type: biochemical
# Chain of TEM-1 β-lactamase enzyme (P62593 24-286 limits assumed): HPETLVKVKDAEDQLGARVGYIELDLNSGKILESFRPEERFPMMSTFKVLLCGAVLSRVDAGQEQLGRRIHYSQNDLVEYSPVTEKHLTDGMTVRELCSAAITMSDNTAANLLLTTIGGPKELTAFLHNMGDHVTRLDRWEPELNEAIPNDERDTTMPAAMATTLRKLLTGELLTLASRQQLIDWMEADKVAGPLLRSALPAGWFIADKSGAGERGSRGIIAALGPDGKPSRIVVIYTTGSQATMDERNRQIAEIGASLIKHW
# Chain of BC II β-lactamase enzyme (P04190 31-257): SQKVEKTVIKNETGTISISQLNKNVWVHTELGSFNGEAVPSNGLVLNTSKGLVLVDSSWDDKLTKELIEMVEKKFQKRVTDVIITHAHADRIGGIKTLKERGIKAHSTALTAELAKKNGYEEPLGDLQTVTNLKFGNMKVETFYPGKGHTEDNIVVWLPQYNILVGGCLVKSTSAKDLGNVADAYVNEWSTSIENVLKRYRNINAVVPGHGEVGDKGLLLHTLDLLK
# Chain of PC1 β-lactamase enzyme (P00807 25-281): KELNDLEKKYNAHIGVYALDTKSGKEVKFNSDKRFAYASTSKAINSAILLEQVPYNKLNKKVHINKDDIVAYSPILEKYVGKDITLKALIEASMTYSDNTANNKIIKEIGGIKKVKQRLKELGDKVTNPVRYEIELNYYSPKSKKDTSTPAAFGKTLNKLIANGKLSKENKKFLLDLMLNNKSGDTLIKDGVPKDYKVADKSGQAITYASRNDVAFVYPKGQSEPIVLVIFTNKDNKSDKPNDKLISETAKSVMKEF
compound,measurement,setting,value
"O=C(O)C1=CS[C@@H]2/C(=C\c3cn4c(n3)SCC4)C(=O)N12 [Example 1, Sodium (5R)-6[(Z)-(2,3-dihydroimidazo[2,1-b]thiazol-6-yl)methylene]-penem-3-carboxylate]",IC50,BC II β-lactamase enzyme,48600 nM
same,IC50,PC1 β-lactamase enzyme,10 nM
same,IC50,OXA-1 β-lactamase enzyme,10 nM
same,IC50,P99 β-lactamase enzyme,< 5 nM
same,IC50,[1],10 nM
same,IC50,TEM-1 β-lactamase enzyme,10 nM
